Test: Standing test of aqueous solution for crystalline deposit
Assay type: physicochemical

crystalline deposit on standing (aqueous 60% by mass solution, left standing at 0° C. for 10 days)	Compound	crystalline deposit on standing (aqueous 30% by mass solution, left standing at room temperature)
–	CN(C)CC(=O)[O-].[Na+] [N,N-dimethylglycine sodium salt]	crystalline N,N-dimethylglycine sodium salt deposited
no crystalline deposit was observed	CN(C)CC(=O)O [N,N-dimethylglycine]	–

From patent publication US7056450B2, “Highly concentrated aqueous solutions of N,N-dialkyl-glycines and process for preparation thereof” (Showa Denko K.K., priority 2001, dated 2006)
